Data: patent publication US20100298141A1, “SUBSTITUTED PYRIDINE N-OXIDE HERBICIDES” (E. I. DU PONT DE NEMOURS AND COMPANY, priority 2007, published 2010)

How the values were obtained:
broadleaf signalgrass = test: Test F preemergence test; assay type: in vivo, Brachiaria platyphylla; details: scale 0 to 100; for Signalgrass plant response rating: 125 g ai/ha
Procedure, shortened: (§1)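 Greenhouse screen: test chemical in surfactant-containing non-phytotoxic solvent applied preemergence to sown seeds or postemergence to sugarcane plants; after 14 to 21 days each species scored visually versus controls.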

bermudagrass = test: Test F preemergence test; assay type: in vivo, Cynodon dactylon; details: scale 0 to 100
Procedure, shortened: as §1

common ragweed = test: Test F preemergence test; assay type: in vivo, Ambrosia elation; details: scale 0 to 100
Procedure, shortened: as §1

woolly cupgrass = test: Test C pre-/postemergence test; assay type: in vivo, Eriochloa villosa
Procedure, shortened: (§2)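 Compounds in a non-phytotoxic solvent with surfactant applied preemergence to seeded pots and, at the same time, postemergence to plants 2–18 cm tall (1- to 4-leaf stage). Paddy tests: pots flooded to 3 cm, compound applied into the water, depth held throughout.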

kochia = test: Test F preemergence test; assay type: in vivo, Kochia scoparia; details: scale 0 to 100
Procedure, shortened: as §1

goosegrass = test: Test F preemergence test; assay type: in vivo, Eleusine indica; details: scale 0 to 100
Procedure, shortened: as §1

corn = test: Test C pre-/postemergence test; assay type: in vivo, Zea mays
Procedure, shortened: as §2

quackgrass = test: Test F preemergence test; assay type: in vivo, Elytrigia repens; details: scale 0 to 100
Procedure, shortened: as §1

southern sandbur = test: Test F preemergence test; assay type: in vivo, Cenchrus echinatus; details: scale 0 to 100; for Sandbur plant response rating: 125 g ai/ha
Procedure, shortened: as §1

barnyardgrass = test: Test F preemergence test; assay type: in vivo, Echinochloa crus-galli
Procedure, shortened: as §1

purple nutsedge = test: Test F preemergence test; assay type: in vivo, Cyperus rotundus; details: scale 0 to 100
Procedure, shortened: as §1

blackgrass = test: Test C pre-/postemergence test; assay type: in vivo, Alopecurus myosuroides
Procedure, shortened: as §2

Surinam grass = test: Test F preemergence test; assay type: in vivo, Brachiaria decumbens; details: scale 0 to 100; for Surinam Grass plant response rating: 125 g ai/ha, preemergence; for Plant response rating, Surinam Grass: Preemergence
Procedure, shortened: as §1

large crabgrass = test: Test F preemergence test; assay type: in vivo, Digitaria sanguinalis; details: scale 0 to 100
Procedure, shortened: as §1

mustard = test: Test F preemergence test; assay type: in vivo, Brassica nigra; details: scale 0 to 100
Procedure, shortened: as §1

Italian ryegrass = test: Test F preemergence test; assay type: in vivo, Lolium multiflorum; details: scale 0 to 100; for Ryegrass, Italian plant response rating: 125 g ai/ha
Procedure, shortened: as §1

[1] = 62 g ai/ha, Preemergence, scale 0 to 100
[2] = 125 g ai/ha, preemergence, scale 0 (no effect) to 100 (complete control)
[3] = Preemergence, 31 g ai/ha, scale 0 to 100 (0 no effect, 100 complete control)
[4] = preemergence, 250 g ai/ha, scale 0 (no effect) to 100 (complete control)
[5] = 16 g ai/ha, preemergence, scale 0 to 100 (0 no effect, 100 complete control)
[6] = 125 g ai/ha, preemergence, scale 0 to 100
[7] = Preemergence, 31 g ai/ha, scale 0 to 100
[8] = Postemergence, 125 g ai/ha, scale 0 to 100, 0 no effect, 100 complete control
[9] = Postemergence, 250 g ai/ha, scale 0 to 100, 0 no effect, 100 complete control

Structure (SMILES): Cc1cc([S+]([O-])Cc2c(C(F)(F)F)nn(C)c2OCC(F)(F)F)[n+]([O-])cc1Cl (stereo not drawn) [Compound 70]
- Signalgrass plant response rating (broadleaf signalgrass; preemergence): 90
- Plant response rating, Signalgrass (broadleaf signalgrass; Preemergence, 62 g ai/ha): 90
- Plant response rating, Bermudagrass (bermudagrass; 16 g ai/ha, preemergence): 40
- Bermudagrass plant response rating (bermudagrass; 62 g ai/ha, Preemergence): 98
- Bermudagrass plant response rating (bermudagrass; 125 g ai/ha, preemergence): 100
- Plant response rating, Bermudagrass (bermudagrass; Preemergence, 31 g ai/ha): 80
- Plant response rating, Ragweed (common ragweed; 16 g ai/ha, preemergence): 60
- Plant response rating, Ragweed (common ragweed; Preemergence, 62 g ai/ha): 80
- Plant response rating, Ragweed (common ragweed; Preemergence, 31 g ai/ha): 60
- Cupgrass, Woolly plant response rating (woolly cupgrass; [1]): 98
- Cupgrass, Woolly plant response rating (woolly cupgrass; [2]): 100
- Plant response rating, Cupgrass, Woolly (woolly cupgrass; [3]): 95
- Cupgrass, Woolly plant response rating (woolly cupgrass; [4]): 100
- Plant response rating, Kochia (kochia; 16 g ai/ha, preemergence): 95
- Kochia plant response rating (kochia; 62 g ai/ha, Preemergence): 100
- Kochia plant response rating (kochia; 125 g ai/ha, preemergence): 100
- Plant response rating, Kochia (kochia; Preemergence, 31 g ai/ha): 95
- Plant response rating, Goosegrass (goosegrass; 16 g ai/ha, preemergence): 60
- Goosegrass plant response rating (goosegrass; 62 g ai/ha, Preemergence): 80
- Goosegrass plant response rating (goosegrass; 125 g ai/ha, preemergence): 100
- Plant response rating, Goosegrass (goosegrass; Preemergence, 31 g ai/ha): 80
- Corn plant response rating (corn; [1]): 95
- Corn plant response rating (corn; [2]): 98
- Plant response rating, Corn (corn; [3]): 50
- Corn plant response rating (corn; [4]): 100
- Plant response rating, Quackgrass (quackgrass; 16 g ai/ha, preemergence): 75
- Quackgrass plant response rating (quackgrass; 62 g ai/ha, Preemergence): 95
- Quackgrass plant response rating (quackgrass; 125 g ai/ha, preemergence): 100
- Plant response rating, Quackgrass (quackgrass; Preemergence, 31 g ai/ha): 75
- Plant response rating, Sandbur (southern sandbur; 16 g ai/ha, preemergence): 65
- Sandbur plant response rating (southern sandbur; preemergence): 100
- Plant response rating, Sandbur (southern sandbur; Preemergence, 62 g ai/ha): 75
- Plant response rating, Barnyardgrass (barnyardgrass; [5]): 60
- Barnyardgrass plant response rating (barnyardgrass; [1]): 95
- Barnyardgrass plant response rating (barnyardgrass; [6]): 100
- Plant response rating, Barnyardgrass (barnyardgrass; [7]): 70
- Plant response rating, Purple Nutsedge (purple nutsedge; 16 g ai/ha, preemergence): 0
- Purple Nutsedge plant response rating (purple nutsedge; 62 g ai/ha, Preemergence): 20
- Purple Nutsedge plant response rating (purple nutsedge; 125 g ai/ha, preemergence): 40
- Plant response rating, Purple Nutsedge (purple nutsedge; Preemergence, 31 g ai/ha): 15
- Blackgrass plant response rating (blackgrass; [1]): 100
- Blackgrass plant response rating (blackgrass; [2]): 100
- Plant response rating, Blackgrass (blackgrass; [3]): 100
- Blackgrass plant response rating (blackgrass; [4]): 100
- Surinam Grass plant response rating (Surinam grass): 100
- Plant response rating, Surinam Grass (Surinam grass; 62 g ai/ha): 98
- Plant response rating, Surinam Grass (Surinam grass; 31 g ai/ha): 40
- Plant response rating, Crabgrass, Large (large crabgrass; 16 g ai/ha, preemergence): 35
- Crabgrass, Large plant response rating (large crabgrass; 62 g ai/ha, Preemergence): 70
- Crabgrass, Large plant response rating (large crabgrass; 125 g ai/ha, preemergence): 98
- Plant response rating, Crabgrass, Large (large crabgrass; Preemergence, 31 g ai/ha): 50
- Plant response rating, Black Mustard (mustard; 16 g ai/ha, preemergence): 90
- Black Mustard plant response rating (mustard; 62 g ai/ha, Preemergence): 100
- Black Mustard plant response rating (mustard; 125 g ai/ha, preemergence): 100
- Plant response rating, Black Mustard (mustard; Preemergence, 31 g ai/ha): 90
- Ryegrass, Italian plant response rating (Italian ryegrass; preemergence): 100
- Plant response rating, Ryegrass, Italian (Italian ryegrass; Preemergence, 62 g ai/ha): 100
- Plant response rating, Ryegrass, Italian (Italian ryegrass; Preemergence, 31 g ai/ha): 75

Structure (SMILES): Cn1nc(C(F)(F)C(F)(F)F)c(C[S+]([O-])c2cccc[n+]2[O-])c1OCC(F)(F)F (stereo not drawn) [Compound 79]
- Plant response rating, Signalgrass (broadleaf signalgrass; 16 g ai/ha, preemergence): 0
- Signalgrass plant response rating (broadleaf signalgrass; preemergence): 100
- Plant response rating, Signalgrass (broadleaf signalgrass; Preemergence, 62 g ai/ha): 30
- Plant response rating, Signalgrass (broadleaf signalgrass; Preemergence, 31 g ai/ha): 0
- Plant response rating, Bermudagrass (bermudagrass; 16 g ai/ha, preemergence): 10
- Bermudagrass plant response rating (bermudagrass; 62 g ai/ha, Preemergence): 100
- Bermudagrass plant response rating (bermudagrass; 125 g ai/ha, preemergence): 100
- Plant response rating, Bermudagrass (bermudagrass; Preemergence, 31 g ai/ha): 65
- Plant response rating, Ragweed (common ragweed; 16 g ai/ha, preemergence): 95
- Ragweed plant response rating (common ragweed; 125 g ai/ha, preemergence): 100
- Plant response rating, Ragweed (common ragweed; Preemergence, 62 g ai/ha): 100
- Plant response rating, Ragweed (common ragweed; Preemergence, 31 g ai/ha): 100
- Cupgrass, Woolly plant response rating (woolly cupgrass; [1]): 50
- Cupgrass, Woolly plant response rating (woolly cupgrass; [2]): 98
- Plant response rating (0 to 100), Cupgrass, Woolly (woolly cupgrass; Postemergence, 31 g ai/ha): 0
- Plant response rating (0 to 100), Cupgrass, Woolly (woolly cupgrass; Postemergence, 62 g ai/ha): 0
- Plant response rating, Cupgrass, Woolly (woolly cupgrass; [8]): 40
- Plant response rating, Cupgrass, Woolly (woolly cupgrass; [9]): 50
- Plant response rating, Cupgrass, Woolly (woolly cupgrass; [3]): 0
- Cupgrass, Woolly plant response rating (woolly cupgrass; [4]): 100
- Plant response rating, Kochia (kochia; 16 g ai/ha, preemergence): 50
- Kochia plant response rating (kochia; 62 g ai/ha, Preemergence): 100
- Kochia plant response rating (kochia; 125 g ai/ha, preemergence): 100
- Plant response rating, Kochia (kochia; Preemergence, 31 g ai/ha): 100
- Plant response rating, Goosegrass (goosegrass; 16 g ai/ha, preemergence): 20
- Goosegrass plant response rating (goosegrass; 62 g ai/ha, Preemergence): 98
- Goosegrass plant response rating (goosegrass; 125 g ai/ha, preemergence): 100
- Plant response rating, Goosegrass (goosegrass; Preemergence, 31 g ai/ha): 75
- Corn plant response rating (corn; [1]): 100
- Corn plant response rating (corn; [2]): 100
- Plant response rating (0 to 100), Corn (corn; Postemergence, 31 g ai/ha): 0
- Plant response rating (0 to 100), Corn (corn; Postemergence, 62 g ai/ha): 25
- Plant response rating, Corn (corn; [8]): 60
- Plant response rating, Corn (corn; [9]): 60
- Plant response rating, Corn (corn; [3]): 60
- Corn plant response rating (corn; [4]): 100
- Plant response rating, Quackgrass (quackgrass; 16 g ai/ha, preemergence): 0
- Quackgrass plant response rating (quackgrass; 62 g ai/ha, Preemergence): 80
- Quackgrass plant response rating (quackgrass; 125 g ai/ha, preemergence): 95
- Plant response rating, Quackgrass (quackgrass; Preemergence, 31 g ai/ha): 35
- Sandbur plant response rating (southern sandbur; preemergence): 95
- Plant response rating, Sandbur (southern sandbur; Preemergence, 62 g ai/ha): 95
- Plant response rating, Sandbur (southern sandbur; Preemergence, 31 g ai/ha): 35
- Plant response rating, Barnyardgrass (barnyardgrass; [5]): 20
- Barnyardgrass plant response rating (barnyardgrass; [1]): 100
- Barnyardgrass plant response rating (barnyardgrass; [6]): 100
- Plant response rating, Barnyardgrass (barnyardgrass; [7]): 80
- Plant response rating, Purple Nutsedge (purple nutsedge; 16 g ai/ha, preemergence): 0
- Purple Nutsedge plant response rating (purple nutsedge; 62 g ai/ha, Preemergence): 0
- Purple Nutsedge plant response rating (purple nutsedge; 125 g ai/ha, preemergence): 60
- Plant response rating, Purple Nutsedge (purple nutsedge; Preemergence, 31 g ai/ha): 0
- Blackgrass plant response rating (blackgrass; [1]): 100
- Blackgrass plant response rating (blackgrass; [2]): 100
- Plant response rating (0 to 100), Blackgrass (blackgrass; Postemergence, 31 g ai/ha): 70
- Plant response rating (0 to 100), Blackgrass (blackgrass; Postemergence, 62 g ai/ha): 80
- Plant response rating, Blackgrass (blackgrass; [8]): 90
- Plant response rating, Blackgrass (blackgrass; [9]): 90
- Plant response rating, Blackgrass (blackgrass; [3]): 98
- Blackgrass plant response rating (blackgrass; [4]): 100
- Surinam Grass plant response rating (Surinam grass): 100
- Plant response rating, Surinam Grass (Surinam grass; 62 g ai/ha): 100
- Plant response rating, Surinam Grass (Surinam grass; 31 g ai/ha): 30
- Plant response rating, Crabgrass, Large (large crabgrass; 16 g ai/ha, preemergence): 0
- Crabgrass, Large plant response rating (large crabgrass; 62 g ai/ha, Preemergence): 80
- Crabgrass, Large plant response rating (large crabgrass; 125 g ai/ha, preemergence): 100
- Plant response rating, Crabgrass, Large (large crabgrass; Preemergence, 31 g ai/ha): 20
- Plant response rating, Black Mustard (mustard; 16 g ai/ha, preemergence): 100
- Black Mustard plant response rating (mustard; 62 g ai/ha, Preemergence): 100
- Black Mustard plant response rating (mustard; 125 g ai/ha, preemergence): 100
- Plant response rating, Black Mustard (mustard; Preemergence, 31 g ai/ha): 100
- Plant response rating, Ryegrass, Italian (Italian ryegrass; 16 g ai/ha, preemergence): 0
- Ryegrass, Italian plant response rating (Italian ryegrass; preemergence): 100
- Plant response rating, Ryegrass, Italian (Italian ryegrass; Preemergence, 62 g ai/ha): 100
- Plant response rating, Ryegrass, Italian (Italian ryegrass; Preemergence, 31 g ai/ha): 65
